Assay results from patent EP1247803A2, “Indolinone compounds suitable for modulation of protein kinases” (Sugen, Inc., priority 1996, dated 1998).

Columns and labels:
FLK-1 receptor = target: T1, FLK-1 receptor (Mus musculus, UniProt P35918); experiment: FLK-1 ELISA (kinase activity of the FLK-1 receptor in FLK-1/NIH3T3 cells, VEGF stimulated); type: cell-based
T1 construct: expressed in transfected cells; host or cells: NIH3T3 C7#3
Outline: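 NIH3T3 C7#3 cells expressing FLK-1 were seeded at 25.000 cells/well, serum-starved overnight in 0.1% FBS, then treated with compound for two hours at 37°C (final DMSO 0.5%) before VEGF stimulation. Receptor was captured on anti-rabbit IgG-coated ELISA plates bearing affinity-purified anti-FLK-1 antiserum.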

MET = MET biochemical kinase assay; design: species or system human; concentration or dose not given beside the values
Outline: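 Immunocaptured MET autophosphorylation, read colorimetrically (TMB) via HRP anti-phosphotyrosine antibody. Kinase reaction initiated with buffer containing ATP and divalent metals after compound addition to plate-bound receptor from lysates.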

PDGF-R = PDGF-R (Homo sapiens, UniProt P09619); experiment: PDGF-R ELISA; type: cell-based
Chain of PDGF-R (P09619 33-1106, species assumed): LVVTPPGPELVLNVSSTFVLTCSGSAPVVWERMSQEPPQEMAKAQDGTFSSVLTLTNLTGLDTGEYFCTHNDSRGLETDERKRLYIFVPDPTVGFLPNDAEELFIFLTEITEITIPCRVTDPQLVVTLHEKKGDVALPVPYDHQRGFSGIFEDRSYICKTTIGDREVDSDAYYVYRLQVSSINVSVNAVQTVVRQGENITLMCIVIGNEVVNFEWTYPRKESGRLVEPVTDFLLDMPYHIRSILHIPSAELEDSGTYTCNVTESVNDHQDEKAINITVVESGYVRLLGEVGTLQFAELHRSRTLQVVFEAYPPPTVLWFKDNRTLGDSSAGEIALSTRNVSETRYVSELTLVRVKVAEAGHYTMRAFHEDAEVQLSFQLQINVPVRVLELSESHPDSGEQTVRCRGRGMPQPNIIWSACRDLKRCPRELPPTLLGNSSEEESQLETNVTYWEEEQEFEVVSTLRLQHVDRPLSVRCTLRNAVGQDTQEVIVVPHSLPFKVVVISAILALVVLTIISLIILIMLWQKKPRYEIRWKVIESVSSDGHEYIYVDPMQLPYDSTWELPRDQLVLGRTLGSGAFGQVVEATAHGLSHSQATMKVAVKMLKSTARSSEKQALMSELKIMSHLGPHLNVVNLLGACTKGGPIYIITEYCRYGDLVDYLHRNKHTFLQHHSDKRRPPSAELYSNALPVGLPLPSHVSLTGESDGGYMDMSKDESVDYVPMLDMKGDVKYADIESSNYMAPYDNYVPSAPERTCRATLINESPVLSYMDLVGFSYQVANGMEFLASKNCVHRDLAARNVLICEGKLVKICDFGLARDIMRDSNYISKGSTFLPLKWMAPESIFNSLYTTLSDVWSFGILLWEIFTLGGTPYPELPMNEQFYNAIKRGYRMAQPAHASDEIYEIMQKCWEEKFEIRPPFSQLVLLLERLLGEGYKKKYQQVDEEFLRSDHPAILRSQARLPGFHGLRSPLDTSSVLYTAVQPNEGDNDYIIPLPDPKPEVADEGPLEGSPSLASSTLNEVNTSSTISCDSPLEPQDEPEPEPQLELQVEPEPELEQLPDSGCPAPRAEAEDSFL
Description: A PDGF-R ELISA is described in International Patent Publication No. WO 96/40116, published December 19, 1996 by Tang et al.

T1 sequence (P35918 20-1345): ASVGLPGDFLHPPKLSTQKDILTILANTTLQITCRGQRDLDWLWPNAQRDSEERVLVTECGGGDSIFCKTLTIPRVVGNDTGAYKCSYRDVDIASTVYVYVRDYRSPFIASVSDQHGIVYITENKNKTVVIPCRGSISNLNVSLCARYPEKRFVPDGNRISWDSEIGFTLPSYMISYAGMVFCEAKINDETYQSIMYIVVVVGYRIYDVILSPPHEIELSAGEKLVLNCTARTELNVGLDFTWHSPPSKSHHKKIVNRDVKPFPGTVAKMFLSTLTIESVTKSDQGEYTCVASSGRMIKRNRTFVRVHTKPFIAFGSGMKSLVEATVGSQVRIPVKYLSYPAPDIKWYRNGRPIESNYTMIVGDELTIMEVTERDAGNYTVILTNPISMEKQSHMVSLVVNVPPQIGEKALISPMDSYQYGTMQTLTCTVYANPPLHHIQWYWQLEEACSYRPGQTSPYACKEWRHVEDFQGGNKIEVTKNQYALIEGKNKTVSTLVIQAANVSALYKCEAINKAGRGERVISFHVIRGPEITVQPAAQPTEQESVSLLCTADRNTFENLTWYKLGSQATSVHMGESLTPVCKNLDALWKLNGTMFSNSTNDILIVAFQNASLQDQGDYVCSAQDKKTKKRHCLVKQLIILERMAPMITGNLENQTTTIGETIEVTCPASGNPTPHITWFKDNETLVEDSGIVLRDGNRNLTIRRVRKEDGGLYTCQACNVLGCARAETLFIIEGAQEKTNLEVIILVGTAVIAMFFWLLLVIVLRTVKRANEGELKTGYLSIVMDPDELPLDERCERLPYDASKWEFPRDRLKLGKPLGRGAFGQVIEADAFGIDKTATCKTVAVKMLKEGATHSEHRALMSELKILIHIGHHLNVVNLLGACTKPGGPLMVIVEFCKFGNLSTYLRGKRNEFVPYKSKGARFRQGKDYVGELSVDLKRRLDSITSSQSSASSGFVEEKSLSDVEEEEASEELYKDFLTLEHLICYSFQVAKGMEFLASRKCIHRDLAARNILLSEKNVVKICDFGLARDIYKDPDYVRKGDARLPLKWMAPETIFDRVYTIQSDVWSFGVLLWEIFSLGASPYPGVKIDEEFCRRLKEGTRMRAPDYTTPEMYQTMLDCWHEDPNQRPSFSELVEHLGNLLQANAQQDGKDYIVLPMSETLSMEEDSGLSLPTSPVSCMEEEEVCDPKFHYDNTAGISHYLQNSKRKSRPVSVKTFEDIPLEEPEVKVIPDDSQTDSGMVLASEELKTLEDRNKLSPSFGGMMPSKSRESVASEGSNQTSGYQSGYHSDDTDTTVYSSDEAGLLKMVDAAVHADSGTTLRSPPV

| SMILES | Fik Kinase %Inhibition (FLK-1 receptor) | Met Kinase % Inhibition (MET) [%] | PDGF Kinase %Inhibition (PDGF-R) [%] |
| --- | --- | --- | --- |
| COC(=O)Cc1c(Cl)[nH]c(C=C2C(=O)Nc3ccc(S(=O)(=O)Nc4ccc(C(F)(F)F)cc4)cc32)c1C(=O)OC [10725/E09] | 7.0% | 22.4 | 37.5 |
| CCOC(=O)c1[nH]c(C=C2C(=O)Nc3c(Br)cc(Br)cc32)c(C(=O)OC)c1C [10726/A03] | -2.6% | 70.1 | 4.3 |
| Cc1cc(C=C2C(=O)Nc3ccc(Br)c(C)c32)cc(C(C)(C)C)c1O [10726/C04] | 12.3% | 91.7 | 36.6 |
| Cc1c(Br)ccc2c1C(=Cc1ccc(N3CCN(C=O)CC3)cc1)C(=O)N2 [10725/C07] | 65.0% | 38.8 | 107.0 |
| Cc1c(Br)ccc2c1C(=Cc1cc(O)c3c(c1O)CCCC3)C(=O)N2 [10726/C07] | -17.0% | 84.9 | -67.7 |
| O=C1Nc2ccc(S(=O)(=O)Nc3ccc(C(F)(F)F)cc3)cc2C1=Cc1c[nH]cn1 [10725/E11] | 18.9% | 9.6 | 20.8 |
| COc1ccc(Br)c(C=C2C(=O)Nc3ccc(CCCl)cc32)c1O [10725/G03] | -6.9% | 58.6 | -6.5 |
| Cc1cc(C=C2C(=O)Nc3ccc(CCCl)cc32)[nH]n1 [10725/G05] | -18.3% | 15.6 | 7.4 |
| Cc1c(Br)ccc2c1C(=Cc1c[nH]cn1)C(=O)N2 [10725/C11] | 104.5% | 48.4 | 80.7 |
| Cc1c(Br)ccc2c1C(=Cc1ccc(N3CCOCC3)cc1)C(=O)N2 [10725/C08] | -8.7% | 28.0 | 101.7 |
| CNS(=O)(=O)c1ccc2c(c1)C(=Cc1c(Br)cnn1-c1ccc(Cl)cc1)C(=O)N2 [10725/D10] | 9.0% | 27.8 | 43.8 |
| Cc1c(Br)ccc2c1C(=Cc1sccc1Br)C(=O)N2 [10725/C02] | 7.0% | 6.3 | -5.1 |
| O=CN1CCN(c2ccc(C=C3C(=O)Nc4ccc(S(=O)(=O)N5CCOCC5)cc43)cc2)CC1 [10725/F07] | 6.9% | 67.8 | 15.0 |
| Cc1ccc(C=C2C(=O)Nc3ccc(S(=O)(=O)Nc4ccc(C(F)(F)F)cc4)cc32)o1 [10725/E04] | -38.8% | 59.0 | 3.1 |
| O=CN1CCN(c2ccc(C=C3C(=O)Nc4ccc(CCCl)cc43)cc2)CC1 [10725/G07] | 4.8% | 39.7 | 23.7 |
| O=C1Nc2c(Br)cc(Br)cc2C1=Cc1ccc(F)cc1 [10717/A05] | -2.6% | 35.6 | – |
| O=C1Nc2ccc(S(=O)(=O)N3CCOCC3)cc2C1=Cc1ccc[nH]1 [10717/F09] | -13.3% | 41.4 | – |
| COC(=O)Cc1c(Cl)[nH]c(C=C2C(=O)Nc3ccc(Br)c(C)c32)c1C(=O)OC [10725/C09] | 11.2% | 24.1 | 34.7 |
| CNS(=O)(=O)c1ccc2c(c1)C(=Cc1[nH]c(Cl)c(CC(=O)OC)c1C(=O)OC)C(=O)N2 [10725/D09] | -0.9% | 28.0 | 35.6 |

| SMILES | Fik Kinase %Inhibition (FLK-1 receptor) | Met Kinase % Inhibition (MET) [%] | PDGF Kinase %Inhibition (PDGF-R) [%] |
| --- | --- | --- | --- |
| O=C1Nc2ccc(S(=O)(=O)N3CCOCC3)cc2C1=Cc1ccc(N2CCOCC2)cc1 [10725/F08] | 8.9% | 72.2 | 28.9 |
| Cc1cn(C)cc1C=C1C(=O)Nc2ccc(Br)c(C)c21 [10726/C06] | 23.8% | 42.6 | 36.0 |
| O=C1Nc2ccc(S(=O)(=O)N3CCOCC3)cc2C1=Cc1sccc1Br [10725/F02] | 5.8% | 27.8 | -15.1 |
| O=C1Nc2ccc(S(=O)(=O)N3CCOCC3)cc2C1=Cc1ccc(Br)cc1 [10717/F08] | -0.7% | 64.0 | – |
| O=C1Nc2ccc(S(=O)(=O)N3CCOCC3)cc2C1=Cc1c[nH]cn1 [10725/F11] | 9.9% | 25.7 | 20.3 |
| O=C1Nc2c(Br)cc(Br)cc2C1=Cc1cc(O)c2c(c1O)CCCC2 [10726/A07] | -72.3% | 101.4 | -36.8 |
| COC(=O)Cc1c(Cl)[nH]c(C=C2C(=O)Nc3ccc(CCCl)cc32)c1C(=O)OC [10725/G09] | 15.2% | 4.7 | 43.8 |
| Cc1cc(C=C2C(=O)Nc3ccc(S(=O)(=O)Nc4ccc(C(F)(F)F)cc4)cc32)[nH]n1 [10725/E05] | -0.2% | 28.2 | 27.5 |
| CNS(=O)(=O)c1ccc2c(c1)C(=Cc1sccc1Br)C(=O)N2 [10725/D02] | -3.6% | 14.0 | -8.4 |
| O=C1Nc2ccc(I)cc2C1=Cc1ccc(Br)o1 [10726/B05] | 13.2% | 96.8 | 27.1 |
| CCOc1ccccc1C=C1C(=O)Nc2ccc(CCCl)cc21 [10717/G02] | 14.9% | 30.7 | – |
| Cc1c(Br)ccc2c1C(=Cc1ccc(Br)o1)C(=O)N2 [10726/C05] | 4.0% | 58.0 | 25.2 |
| CNS(=O)(=O)c1ccc2c(c1)C(=Cc1c(Br)ccc(OC)c1O)C(=O)N2 [10725/D03] | -11.3% | 72.9 | 5.4 |
| COc1cccc(O)c1C=C1C(=O)Nc2ccc(S(=O)(=O)N3CCOCC3)cc21 [10717/F10] | -4,4% | 54.6 | – |
| Cc1cc(C=C2C(=O)Nc3ccc(Br)c(C)c32)[nH]n1 [10725/C05] | -37.0% | 31.7 | 28.9 |
| O=C1Nc2ccc(F)cc2C1=C1C(=O)Nc2ccc(I)cc21 [10726/B08] | 12.2% | 60.2 | 24.6 |
| Cc1[nH]c(C=C2C(=O)Nc3ccc(S(=O)(=O)N4CCOCC4)cc32)c(Br)c1Br [10717/F11] | 1.4% | 81.5 | – |
| Cc1ccc(C=C2C(=O)Nc3ccc(S(=O)(=O)N4CCOCC4)cc32)s1 [10717/F07] | 2.0% | 37.6 | – |
| O=C1Nc2ccc(CCCl)cc2C1=Cc1cccs1 [10717/G03] | 1.8% | 4.5 | – |
